Assay [1] deals with S. aureus ATCC25923. In words: MIC determination by microplate dilution, S. aureus human strain. Format: cell-based, Staphylococcus aureus. As to conditions: Staphylococcus aureus, ATCC25923, Gram-positive, Mueller-Hinton medium, 24 h, 37° C. Here is the method:
(§1) 1) Preparation of the Preculture
(§2) A negative control (2 mL of sterile culture medium)
(§3) A positive control (1940 μL of culture medium+40 μL of DMSO+20 μL of bacterial suspension) from a thawed biological strain (the biological strains are stored at −80° C. in glycerol).
(§4) The tubes were incubated at 37° C. for 24 hours at 100 rpm.
(§5) The microorganisms were handled under a type L2 laboratory fume cupboard and, before any handling, a UV cycle was programmed and only sterile material was used. […] The chemical compounds to be tested were prepared in a DMSO/methanol mixture (50/50) at a concentration of 5 mg/mL.
(§6) 2) Preparation of the Microplate for the Determination of the Minimum Inhibitory Concentration (MIC)
(§7) After 24 hours of incubation, a measurement of the optical density was taken using a spectrophotometer at 600 nm, collecting 100 μL of the bacterial suspension diluted in 900 μL of the sterile culture medium. This test required the use of a 96-well plate and the required volume of the microbial suspension to be seeded was calculated for an OD corresponding to a value equal to 0.01 in each well. In this plate, the first line corresponded to the negative control (195 μL of sterile culture medium in each well), the second line to the positive control (seeded culture medium supplemented with 2% of DMSO), the third line was loaded twice with bacterial suspension, 8 μL of test product were placed in each well. Thereafter, a 0.5 cascade dilution was performed from this line.
(§8) The first column served as inhibition control. A sterile filter was then placed on the microplate, allowing the passage of gases but not of contaminants. The microplate was incubated at 37° C. under a humid atmosphere for 24 hours.
(§9) NB: The medium used is Mueller-Hinton (MH) medium for bacteria. All the tests were performed in duplicate.
(§10) 4) Reading of the Results
(§11) After incubation, the filter was replaced with a transparent film, and an OD reading was then taken in an iEMS plate spectrophotometer at 620 nm. Calculation of the minimum inhibitory concentration (MIC) was performed.

The subject of assay [2] is S. aureus (340). In words: MIC determination by microplate dilution, S. aureus animal strain. Format: cell-based, Staphylococcus aureus. The conditions noted are these: Staphylococcus aureus, Gram-positive, Mueller-Hinton medium, 24 h, 37° C. Here is the method: as §1, §2, §3, §4, §5, §6, §7, §8, §9, §10, §11
In assay [3] the test system is S. intermedius (1051997). In words: MIC determination by microplate dilution, S. intermedius animal strain. The conditions noted are these: Staphylococcus intermedius, Gram-positive, Mueller-Hinton medium, 24 h, 37° C. It counts as cell-based, Staphylococcus intermedius. Here is the method:
as §1, §2, §3, §4, §5, §6, §7, §8, §9, §10, §11

The subject of assay [4] is E. faecalis ATCC29212. The assay can be described thus: MIC determination by microplate dilution, E. faecalis human strain. It counts as cell-based, Enterococcus faecalis. The conditions noted are these: Enterococcus faecalis, ATCC29212, Gram-positive, Mueller-Hinton medium, 24 h, 37° C. Here is the method: as §1, §2, §3, §4, §5, §6, §7, §8, §9, §10, §11
For assay [5], the system named is E. coli ATCC28922. The assay can be described thus: MIC determination by microplate dilution, E. coli human strain. It counts as cell-based, Escherichia coli. The conditions noted are these: Escherichia coli, ATCC28922, Gram-negative, Mueller-Hinton medium, 24 h, 37° C. Here is the method: as §1, §2, §3, §4, §5, §6, §7, §8, §9, §10, §11
The subject of assay [6] is E. coli (1956). The assay can be described thus: MIC determination by microplate dilution, E. coli animal strain. Format: cell-based, Escherichia coli. The conditions noted are these: Escherichia coli, Gram-negative, Mueller-Hinton medium, 24 h, 37° C. Here is the method: as §1, §2, §3, §4, §5, §6, §7, §8, §9, §10, §11
The subject of assay [7] is P. aeruginosa ATCC27853. The assay can be described thus: MIC determination by microplate dilution, P. aeruginosa human strain. It counts as cell-based, Pseudomonas aeruginosa. The conditions noted are these: Pseudomonas aeruginosa, ATCC27853, Gram-negative, Mueller-Hinton medium, 24 h, 37° C. Here is the method: as §1, §2, §3, §4, §5, §6, §7, §8, §9, §10, §11
In assay [8] the test system is P. aeruginosa (1051575). In words: MIC determination by microplate dilution, P. aeruginosa animal strain. It counts as cell-based, Pseudomonas aeruginosa. The conditions noted are these: Pseudomonas aeruginosa, Gram-negative, Mueller-Hinton medium, 24 h, 37° C. Here is the method: as §1, §2, §3, §4, §5, §6, §7, §8, §9, §10, §11
Assay [9] concerns CHO-K1 cells. The assay can be described thus: WST1 cytotoxicity test on CHO-K1 cells. It counts as cell-based, Chinese hamster. As to conditions: Cricetulus griseus, CHO-K1, 24 h, read-out: IC50 (μg/mL) CHO. Here is the method:
Test WST1 was used to measure the cytotoxic activity of the products. This is a colorimetric test which makes it possible to measure the viability and the degree of cell proliferation. It is based on cleavage of the colorless tetrazolium salts WST-1 (4-[3-(4-iodophenyl)-2-(4-nitrophenyl)-2H-5-tetrazolio]-1,3-benzene disulfonate) with mitochondrial dehydrogenases to the yellow-colored formazan derivative, which may be quantified by spectrophotometry at 420-480 nm.
The WST1 test was performed on Chinese hamster ovary cells. The CHO-K1 cells (ATCC, USA) are kept in culture on McCoy's 5A medium supplemented with 10% fetal calf serum, 2 mM of L-glutamine and a mixture of penicillin-streptomycin (100 U/ml: 10 μg/mL). The culture is incubated at 37° C. under an atmosphere enriched in CO2 (5%), and subcultured every two days.
The cells are transferred into 96-well plates (25 000 cells/mL) in whole McCoy's 5A medium, and maintained for 24 hours at 37° C. under a humid atmosphere enriched in CO2 (5%). Increasing concentrations of test products are added to the wells in double tests and 8 growth controls containing the cells in the medium alone are included in each series of tests. After 24 hours at 37° C. (5% CO2), the culture medium is removed, the cells are rinsed in phosphate buffer (PBS) and 50 μL of PBS containing 10% of reagent WST1 are added to each well. After 20 minutes of incubation at 37° C., the results are read by spectrophotometry at 450 nm.
The results are expressed in dose-response relationships, modeled by nonlinear regression analysis using the TableCurve software. The 50% inhibitory concentration (IC50) represents the concentration of product that is capable of reducing the cell viability by 50%.

In assay [10] the test system is P. aeruginosa (1051575). The assay can be described thus: Potentiation of the doxycycline activity at 2 μg/mL. It counts as cell-based, Pseudomonas aeruginosa. The conditions noted are these: in combination with doxycycline 2 μg/mL; 24 h, 37°.

SMILES strings stand for the structures. ≈ marks a conversion by molar mass, not a printed value.

For `COC(=O)CC[C@@H](C)[C@H]1CCC2C3C(CC[C@@]21C)[C@@]1(C)CC[C@H](NCCNCCNCCNCCNCCN)CC1C[C@H]3O` (stereo partly drawn) [(22), methyl 3β-(pentaethylenehexamine)chenodeoxycholate], the MIC in assay [1] worked out at 16 µg/mL (≈ 25.8 µM); in [2], 4 µg/mL (≈ 6.44 µM); in [3], 2 µg/mL (≈ 3.22 µM); in assay [4] it was 8 µg/mL (≈ 12.9 µM); in assay [5] it was 31 µg/mL (≈ 49.9 µM); in assay [6], 8 µg/mL (≈ 12.9 µM). The MIC in [7] and in assay [8] was 31 µg/mL (≈ 49.9 µM) throughout. Besides, the IC50 in [9] is 60 µg/mL (≈ 96.6 µM). Also, the “MIC - P. aeruginosa (1051575): content of compound of formula (I) to restore the doxycycline activity (at 2 μg/mL)” value (“MIC - P. aeruginosa (1051575): content” for short) in assay [10] stood at 4 µg/mL.

On to `CC(C)OC(=O)CC[C@@H](C)[C@H]1CCC2C3C(CC[C@@]21C)[C@@]1(C)CC[C@H](NCCNCCNCCNCCNCCN)CC1C[C@H]3O` (stereo partly drawn) [(23), isopropyl 3β-(pentaethylenehexamine)chenodeoxycholate], for which the MIC stood at 16 µg/mL (≈ 24.7 µM) in [1]; 16 µg/mL (≈ 24.7 µM) in assay [2]; 8 µg/mL (≈ 12.3 µM) in assay [3]; 16 µg/mL (≈ 24.7 µM) in [4]; 16 µg/mL (≈ 24.7 µM) in assay [5]; 32 µg/mL (≈ 49.3 µM) in [6]. Also, the MIC in assay [7] and in assay [8] was 64 µg/mL (≈ 98.6 µM) throughout. The “MIC - P. aeruginosa (1051575): content” value in assay [10] came out at 8 µg/mL.

In the case of `CC(C)OC(=O)CC[C@@H](C)[C@H]1CCC2C3CCC4C[C@@H](NCCCN(C)CCCN)CC[C@]4(C)C3C[C@H](O)[C@@]21C` (stereo partly drawn) [(30), isopropyl 3β-(bis(3-aminopropyl)methylamine)deoxycholate], the MIC was found to be 28 µg/mL (≈ 49.8 µM) in assay [1]; 28 µg/mL (≈ 49.8 µM) in [2]; 14 µg/mL (≈ 24.9 µM) in [3]; 56 µg/mL (≈ 99.7 µM) in assay [4]; 28 µg/mL (≈ 49.8 µM) in assay [5]; 56 µg/mL (≈ 99.7 µM) in assay [6]. Moreover, the MIC in [7] and in assay [8] was 56 µg/mL (≈ 99.7 µM) throughout. The “MIC - P. aeruginosa (1051575): content” value in [10] was 7 µg/mL.

`CC(C)OC(=O)CC[C@@H](C)[C@H]1CCC2C3C(C[C@H](O)[C@@]21C)[C@@]1(C)CC[C@H](NCCCN(CCCN)CCCN)CC1C[C@H]3O` (stereo partly drawn) [(34), isopropyl 3β-(tris(3-aminopropyl)amine)cholate]: the minimum inhibitory concentration (MIC) in assay [1] came to 15 µg/mL (≈ 24.2 µM); in [2], 15 µg/mL (≈ 24.2 µM); in [3], 7 µg/mL (≈ 11.3 µM); in assay [4], 30 µg/mL (≈ 48.3 µM); in [5], 30 µg/mL (≈ 48.3 µM); in [6], 30 µg/mL (≈ 48.3 µM). The MIC in assay [7] and in assay [8] was 30 µg/mL (≈ 48.3 µM) each time. Also, in [10], the “MIC - P. aeruginosa (1051575): content” value amounted to 4 µg/mL.

On to `COC(=O)CC[C@@H](C)[C@H]1CCC2C3C(CC[C@@]21C)[C@@]1(C)CC[C@H](NCCCN(CCCN)CCCN)CC1C[C@@H]3O` (stereo partly drawn) [(52), methyl 3β-(tris(3-aminopropyl)amine)ursodeoxycholate], for which the MIC turned out to be 14 µg/mL (≈ 24.3 µM) in [1]; 14 µg/mL (≈ 24.3 µM) in assay [2]; 30 µg/mL (≈ 52 µM) in assay [4]; 30 µg/mL (≈ 52 µM) in assay [5]; 30 µg/mL (≈ 52 µM) in [6]; 14 µg/mL (≈ 24.3 µM) in [7]. Also, the lowest concentration to inhibit growth in assay [8] (MIC) was 30 µg/mL (≈ 52 µM). In addition, the “MIC - P. aeruginosa (1051575): content” value in [10] stood at 7 µg/mL.

One may read the MIC as the smallest concentration in the dilution series that meets the test's criterion for growth inhibition. A high value points to weaker potency.

The record behind these values is patent US20190255073A1, “ESTERS OF 3-POLYAMINE DERIVATIVES OF BILE ACIDS FOR THE TREATMENT OF INFECTIONS” (VIRBAC, priority 2016, published 2019).
